According to ChEMBL document CHEMBL1255224, “Design and synthesis of prolylcarboxypeptidase (PrCP) inhibitors to validate PrCP as a potential target for obesity” (J Med Chem, 2010):

tested on: not listed separately; test: Clearance in mouse; assay type: ADME, organism-based; details: in vivo

| clearance | Compound |
| --- | --- |
| 72 mL/min/kg | C[C@@H](c1ccccc1)[C@H](NC(=O)C(C)(C)O)C(=O)N1CCC[C@H]1c1nc2cc(Cl)c(Cl)cc2[nH]1 |
| 23 mL/min/kg | C[C@@H](c1ccc(-c2ccc(F)cc2)cc1)[C@H](NC(=O)C(C)(C)O)C(=O)N1CCC[C@H]1c1nc2cc(Cl)c(Cl)cc2[nH]1 |
| 17 mL/min/kg | C[C@@H](c1ccccc1)[C@H](NC(=O)C(C)(C)N)C(=O)N1CCC[C@H]1c1nc2cc(Cl)c(Cl)cc2[nH]1 |

Continued, compound first:

| Compound | clearance |
| --- | --- |
| O=C(CCc1ccc(-c2ccccc2)cc1)N1CCC[C@H]1c1ncc(-c2cccc(F)c2)[nH]1 | 75 mL/min/kg |
| CC(C)(N)C(=O)N[C@@H](Cc1ccc(-c2ccccc2)cc1)C(=O)N1CCC[C@H]1c1nc2cc(Cl)c(Cl)cc2[nH]1 | 12 mL/min/kg |
| Cc1ccccc1-c1c[nH]c([C@@H]2CCCN2C(=O)COc2ccc(-c3ccccc3)cc2)n1 | 54 mL/min/kg |
| CC(C)(O)C(=O)N[C@@H](Cc1ccc(-c2ccccc2)cc1)C(=O)N1CCC[C@H]1c1nc2cc(F)c(F)cc2[nH]1 | 39 mL/min/kg |
| CC(C)(N)CC(=O)N[C@@H](Cc1ccc(-c2ccccc2)cc1)C(=O)N1CCC[C@H]1c1nc2cc(Cl)c(Cl)cc2[nH]1 | 14 mL/min/kg |
| CC(C)(N)C(=O)N[C@@H](Cc1ccc(Cl)cc1)C(=O)N1CCC[C@H]1c1nc2cc(Cl)c(Cl)cc2[nH]1 | 7 mL/min/kg |
| CC(C)(N)C(=O)N[C@@H](Cc1ccc(-c2ccccc2)cc1)C(=O)N1CCC[C@H]1c1ncc(C(C)(C)C)[nH]1 | 11 mL/min/kg |

tested on: not listed separately; test: Volume of distribution in mouse; assay type: ADME, organism-based; details: in vivo

| Vd | Compound |
| --- | --- |
| 2.4 L/kg | C[C@@H](c1ccccc1)[C@H](NC(=O)C(C)(C)O)C(=O)N1CCC[C@H]1c1nc2cc(Cl)c(Cl)cc2[nH]1 |
| 1.2 L/kg | C[C@@H](c1ccc(-c2ccc(F)cc2)cc1)[C@H](NC(=O)C(C)(C)O)C(=O)N1CCC[C@H]1c1nc2cc(Cl)c(Cl)cc2[nH]1 |
| 1.5 L/kg | C[C@@H](c1ccccc1)[C@H](NC(=O)C(C)(C)N)C(=O)N1CCC[C@H]1c1nc2cc(Cl)c(Cl)cc2[nH]1 |

Further lines, the compound ahead of its results:

| Compound | Vd |
| --- | --- |
| O=C(CCc1ccc(-c2ccccc2)cc1)N1CCC[C@H]1c1ncc(-c2cccc(F)c2)[nH]1 | 4.6 L/kg |
| CC(C)(N)C(=O)N[C@@H](Cc1ccc(-c2ccccc2)cc1)C(=O)N1CCC[C@H]1c1nc2cc(Cl)c(Cl)cc2[nH]1 | 2.7 L/kg |
| Cc1ccccc1-c1c[nH]c([C@@H]2CCCN2C(=O)COc2ccc(-c3ccccc3)cc2)n1 | 4 L/kg |
| CC(C)(O)C(=O)N[C@@H](Cc1ccc(-c2ccccc2)cc1)C(=O)N1CCC[C@H]1c1nc2cc(F)c(F)cc2[nH]1 | 1.5 L/kg |
| CC(C)(N)CC(=O)N[C@@H](Cc1ccc(-c2ccccc2)cc1)C(=O)N1CCC[C@H]1c1nc2cc(Cl)c(Cl)cc2[nH]1 | 6.8 L/kg |
| CC(C)(N)C(=O)N[C@@H](Cc1ccc(Cl)cc1)C(=O)N1CCC[C@H]1c1nc2cc(Cl)c(Cl)cc2[nH]1 | 2.6 L/kg |
| CC(C)(N)C(=O)N[C@@H](Cc1ccc(-c2ccccc2)cc1)C(=O)N1CCC[C@H]1c1ncc(C(C)(C)C)[nH]1 | 11 L/kg |

biological target: T1, Lysosomal Pro-X carboxypeptidase (Mus musculus, UniProt Q7TMR0); test: Inhibition of mouse PrCP by FRET in presence of 1% mouse serum albumin; details: not given
T1 sequence (Q7TMR0 whole entry): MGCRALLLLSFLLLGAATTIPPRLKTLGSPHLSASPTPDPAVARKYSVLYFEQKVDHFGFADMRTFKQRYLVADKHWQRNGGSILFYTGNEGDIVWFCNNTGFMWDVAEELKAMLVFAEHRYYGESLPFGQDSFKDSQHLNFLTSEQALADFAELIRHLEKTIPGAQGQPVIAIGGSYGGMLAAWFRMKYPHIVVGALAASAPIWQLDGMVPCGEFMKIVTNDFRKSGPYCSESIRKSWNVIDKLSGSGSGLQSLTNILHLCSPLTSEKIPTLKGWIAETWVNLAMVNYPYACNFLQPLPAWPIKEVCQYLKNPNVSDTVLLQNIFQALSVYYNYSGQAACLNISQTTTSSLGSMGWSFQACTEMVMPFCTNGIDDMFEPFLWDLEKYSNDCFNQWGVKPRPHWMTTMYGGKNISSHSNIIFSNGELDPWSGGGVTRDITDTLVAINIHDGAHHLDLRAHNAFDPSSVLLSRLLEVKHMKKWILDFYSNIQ

| IC50 | Compound |
| --- | --- |
| 98 nM | C[C@@H](c1ccccc1)[C@H](NC(=O)C(C)(C)O)C(=O)N1CCC[C@H]1c1nc2cc(Cl)c(Cl)cc2[nH]1 |
| 60 nM | C[C@@H](c1ccccc1)[C@H](NC(=O)C(C)(C)N)C(=O)N1CCC[C@H]1c1nc2cc(Cl)c(Cl)cc2[nH]1 |

Further lines, the compound ahead of its results:

| Compound | IC50 |
| --- | --- |
| CC(C)(N)C(=O)N[C@@H](Cc1ccc(-c2ccccc2)cc1)C(=O)N1CCC[C@H]1c1nc2cc(Cl)c(Cl)cc2[nH]1 | 789 nM |
| CC(C)(N)C(=O)N[C@@H](Cc1ccc(-c2ccccc2)cc1)C(=O)N1CCC[C@H]1c1ncc(C(C)(C)C)[nH]1 | 17 nM |

biological target: T1, Lysosomal Pro-X carboxypeptidase; test: Inhibition of mouse PrCP by FRET; details: not given

| IC50 | Compound |
| --- | --- |
| 29 nM | C[C@@H](c1ccccc1)[C@H](NC(=O)C(C)(C)O)C(=O)N1CCC[C@H]1c1nc2cc(Cl)c(Cl)cc2[nH]1 |
| 32 nM | C[C@@H](c1ccccc1)[C@H](NC(=O)C(C)(C)N)C(=O)N1CCC[C@H]1c1nc2cc(Cl)c(Cl)cc2[nH]1 |

The remaining lines, values behind:

| Compound | IC50 |
| --- | --- |
| O=C(CCc1ccc(-c2ccccc2)cc1)N1CCC[C@H]1c1ncc(-c2cccc(F)c2)[nH]1 | 871 nM |
| CC(C)(N)C(=O)N[C@@H](Cc1ccc(-c2ccccc2)cc1)C(=O)N1CCC[C@H]1c1nc2cc(Cl)c(Cl)cc2[nH]1 | 15 nM |
| CC(C)(N)C(=O)N[C@@H](Cc1ccc(-c2ccccc2)cc1)C(=O)N1CCC[C@H]1c1ncc(C(C)(C)C)[nH]1 | 41 nM |

tested on: not listed separately; test: Half life in mouse; assay type: ADME, organism-based; details: in vivo

| half-life | Compound |
| --- | --- |
| 30 min | C[C@@H](c1ccccc1)[C@H](NC(=O)C(C)(C)O)C(=O)N1CCC[C@H]1c1nc2cc(Cl)c(Cl)cc2[nH]1 |
| 48 min | C[C@@H](c1ccc(-c2ccc(F)cc2)cc1)[C@H](NC(=O)C(C)(C)O)C(=O)N1CCC[C@H]1c1nc2cc(Cl)c(Cl)cc2[nH]1 |
| 90 min | C[C@@H](c1ccccc1)[C@H](NC(=O)C(C)(C)N)C(=O)N1CCC[C@H]1c1nc2cc(Cl)c(Cl)cc2[nH]1 |

Further lines, the compound ahead of its results:

| Compound | half-life |
| --- | --- |
| O=C(CCc1ccc(-c2ccccc2)cc1)N1CCC[C@H]1c1ncc(-c2cccc(F)c2)[nH]1 | 48 min |
| CC(C)(N)C(=O)N[C@@H](Cc1ccc(-c2ccccc2)cc1)C(=O)N1CCC[C@H]1c1nc2cc(Cl)c(Cl)cc2[nH]1 | 168 min |
| Cc1ccccc1-c1c[nH]c([C@@H]2CCCN2C(=O)COc2ccc(-c3ccccc3)cc2)n1 | 204 min |
| CC(C)(O)C(=O)N[C@@H](Cc1ccc(-c2ccccc2)cc1)C(=O)N1CCC[C@H]1c1nc2cc(F)c(F)cc2[nH]1 | 30 min |
| CC(C)(N)CC(=O)N[C@@H](Cc1ccc(-c2ccccc2)cc1)C(=O)N1CCC[C@H]1c1nc2cc(Cl)c(Cl)cc2[nH]1 | 312 min |
| CC(C)(N)C(=O)N[C@@H](Cc1ccc(Cl)cc1)C(=O)N1CCC[C@H]1c1nc2cc(Cl)c(Cl)cc2[nH]1 | 180 min |
| CC(C)(N)C(=O)N[C@@H](Cc1ccc(-c2ccccc2)cc1)C(=O)N1CCC[C@H]1c1ncc(C(C)(C)C)[nH]1 | 900 min |

tested on: not listed separately; test: Oral bioavailability in mouse; assay type: ADME, organism-based; details: in vivo

| bioavailability | Compound |
| --- | --- |
| 4% | C[C@@H](c1ccccc1)[C@H](NC(=O)C(C)(C)O)C(=O)N1CCC[C@H]1c1nc2cc(Cl)c(Cl)cc2[nH]1 |
| 12% | C[C@@H](c1ccc(-c2ccc(F)cc2)cc1)[C@H](NC(=O)C(C)(C)O)C(=O)N1CCC[C@H]1c1nc2cc(Cl)c(Cl)cc2[nH]1 |
| 41% | C[C@@H](c1ccccc1)[C@H](NC(=O)C(C)(C)N)C(=O)N1CCC[C@H]1c1nc2cc(Cl)c(Cl)cc2[nH]1 |

The remaining lines, values behind:

| Compound | bioavailability |
| --- | --- |
| O=C(CCc1ccc(-c2ccccc2)cc1)N1CCC[C@H]1c1ncc(-c2cccc(F)c2)[nH]1 | 5% |
| CC(C)(N)C(=O)N[C@@H](Cc1ccc(-c2ccccc2)cc1)C(=O)N1CCC[C@H]1c1nc2cc(Cl)c(Cl)cc2[nH]1 | 31% |
| Cc1ccccc1-c1c[nH]c([C@@H]2CCCN2C(=O)COc2ccc(-c3ccccc3)cc2)n1 | 49% |
| CC(C)(O)C(=O)N[C@@H](Cc1ccc(-c2ccccc2)cc1)C(=O)N1CCC[C@H]1c1nc2cc(F)c(F)cc2[nH]1 | 9% |
| CC(C)(N)CC(=O)N[C@@H](Cc1ccc(-c2ccccc2)cc1)C(=O)N1CCC[C@H]1c1nc2cc(Cl)c(Cl)cc2[nH]1 | 0% |
| CC(C)(N)C(=O)N[C@@H](Cc1ccc(Cl)cc1)C(=O)N1CCC[C@H]1c1nc2cc(Cl)c(Cl)cc2[nH]1 | 100% |
| CC(C)(N)C(=O)N[C@@H](Cc1ccc(-c2ccccc2)cc1)C(=O)N1CCC[C@H]1c1ncc(C(C)(C)C)[nH]1 | 6% |
